Measured values: patent US8846981B2, “1,1-di[(alkylphenoxy)ethoxy]cyclohexanes” (Southern Lithoplate, Inc., priority 2012, dated 2014)

Tests used:
[1] = Solubility of the ketals in water / deionized water; assay type: physicochemical; conditions: for Solubility in water: product or starting alcohol as described in the example
Source text: A typical aqueous alkaline developer for a positive-working, lithographic printing plate contains roughly 5% by weight of NaOH or KOH. A 1.0 M NaOH solution is equivalent to 4% by weight of NaOH.

[2] = Acid decomposition of the ketal back to starting alcohol and cyclohexanone; assay type: physicochemical; conditions: addition of an acid, such as p-toluenesulfonic acid
Procedure: A stirred mixture of 72 g (0.5 mol) of 1,1-dimethoxycyclohexane, 250 g (1.0 mol) of 2-[4-(1,1,3,3-tetramethylbutyl)phenoxy]ethanol, 0.080 g of p-toluenesulfonic acid, and 300 ml of toluene was reacted in a flask with a thermometer and fractional distillation column at 120° C. for 8 hours with continuous stirring. The low boiling methanol that was produced during the reaction was removed. The reaction mixture was cooled to room temperature and washed with a small amount of an aqueous 1.0 M sodium hydroxide solution until the mixture was neutralized. The reaction mixture was then washed with a saturated sodium chloride solution to remove any remaining water in the toluene. Next the reaction mixture was dried over anhydrous potassium carbonate to remove any minor amounts of water and to make sure all of the p-toluenesulfonic acid was removed. The resulting mixture was filtered. The filtrate was evaporated under reduced pressure at 60° C. until all of the toluene was removed. […] The starting surfactant is water-insoluble. This ketal with a theoretical molecular weight of 580 has the structural formula shown below.

[3] = related art; cited from earlier work
[4] = related art; cited from earlier work; remark: listed apart in the source
[5] = Solubility in a 1.0 M NaOH water solution; assay type: physicochemical; conditions: 1.0 M NaOH water solution (equivalent to 4% by weight NaOH)
Source text: The physical appearance of the ketals from Examples 1-4 and from Comparative Examples A-B are given in the following table, along with their solubility in deionized water and in a 1.0 M NaOH water solution. A typical aqueous alkaline developer for a positive-working, lithographic printing plate contains roughly 5% by weight of NaOH or KOH. A 1.0 M NaOH solution is equivalent to 4% by weight of NaOH.

SMILES: CC(C)(C)CC(C)(C)c1ccc(OCCO)cc1 [2-[4-(1,1,3,3-tetramethylbutyl)phenoxy]ethanol]
- Solubility in water [1]: water-insoluble

SMILES: CC(C)(C)c1ccc(OCCO)cc1 [2-[4-(1,1-dimethylethyl)phenoxy]ethanol]
- Solubility in water [1]: water-insoluble

SMILES: OCCOc1ccccc1 [2-phenoxyethanol]
- Solubility in water [1]: low water solubility

SMILES: c1ccc(OCCOC2(OCCOc3ccccc3)CCCCC2)cc1 [A, 1,1-di(2-phenoxyethoxy)cyclohexane]
- Decomposition by acid [2]: can be converted back to the starting alcohol and cyclohexanone
- Decomposition by strong acids (background statement) [3]: decompose this ketal into cyclohexanone and 2-phenoxyethanol
- Solubility in DI Water ([1]; deionized water): insoluble
- Solubility in water [1]: water-insoluble
- Solubility in water (background statement, words) [4]: water insoluble
- Solubility in 1.0M NaOH [5]: insoluble
